{"source": "patent US20140073634A1", "about": "(Institute For Applied Cancer Science/The University of …, priority 2012, published 2014)", "system": "293T-HRE-GFP-luc cells", "experiment": "Cell-based reporter assay for IC50 determinations (HRE-luciferase, hypoxia)", "details": "6 h, 6 hrs hypoxia (1% O2), luminescence", "summary_of_the_method": "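293T-HRE-GFP-luc cells were pre-incubated with serially diluted compounds for 30 min under normoxia, then held 6 hrs in hypoxia (1% O2, 37° C). HRE-driven luciferase read by Steadylite Plus luminescence; IC50 from four-parameter logistic fit.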", "data": [{"compound": "O=c1ccc(-c2nc(-c3ccc(OC(F)(F)F)cc3)no2)cn1Cc1cccc([N+](=O)[O-])c1", "note": "[Example 146, 1-[(3-nitrophenyl)methyl]-5-{3-[4-(trifluoromethoxy)phenyl]-1,2,4-oxadiazol-5-yl}-1,2-dihydropyridin-2-one]", "values": [{"measurement": "IC50", "value": "100 to 1000", "unit": "nM"}]}, {"compound": "O=c1ccc(-c2nc(-c3ccc(OC(F)(F)F)cc3)no2)cn1Cc1cccc(OCCO)c1", "note": "[Example 147, 1-{[3-(2-hydroxyethoxy)phenyl]methyl}-5-{3-[4-(trifluoromethoxy)phenyl]-1,2,4-oxadiazol-5-yl}-1,2-dihydropyridin-2-one]", "values": [{"measurement": "IC50", "value": "< 100", "unit": "nM"}]}, {"compound": "CCOc1cccc(Cn2cc(-c3nc(-c4ccc(OC(F)(F)F)cc4)no3)ccc2=O)c1", "note": "[Example 148, 1-[(3-ethoxyphenyl)methyl]-5-{3-[4-(trifluoromethoxy)phenyl]-1,2,4-oxadiazol-5-yl}-1,2-dihydropyridin-2-one]", "values": [{"measurement": "IC50", "value": "< 100", "unit": "nM"}]}, {"compound": "CN(C)C(=O)COc1cccc(Cn2cc(-c3nc(-c4ccc(OC(F)(F)F)cc4)no3)ccc2=O)c1", "note": "[Example 149, N,N-dimethyl-2-{3-[(2-oxo-5-{3-[4-(trifluoromethoxy)phenyl]-1,2,4-oxadiazol-5-yl}-1,2-dihydropyridin-1-yl)methyl]phenoxy}acetamide]", "values": [{"measurement": "IC50", "value": "< 100", "unit": "nM"}]}, {"compound": "CC(C)(C)OC(=O)NCCOc1cccc(Cn2cc(-c3nc(-c4ccc(OC(F)(F)F)cc4)no3)ccc2=O)c1", "note": "[Example 150, tert-butyl N-(2-{3-[(2-oxo-5-{3-[4-(trifluoromethoxy)phenyl]-1,2,4-oxadiazol-5-yl}-1,2-dihydropyridin-1-yl)methyl]phenoxy}ethyl)carbamate]", "values": [{"measurement": "IC50", "value": "< 100", "unit": "nM"}]}, {"compound": "Cc1cccc(Cn2cc(-c3nc(-c4ccc(OC(F)(F)F)cc4)no3)ccc2=O)c1", "note": "[Example 152, 1-[(3-methylphenyl)methyl]-5-{3-[4-(trifluoromethoxy)phenyl]-1,2,4-oxadiazo-5-yl}-1,2-dihydropyridin-2-one]", "values": [{"measurement": "IC50", "value": "< 100", "unit": "nM"}]}, {"compound": "N#CC1CCN(c2cc(Cn3cc(-c4nc(-c5ccc(OC(F)(F)F)cc5)no4)ccc3=O)ccn2)CC1", "note": "[Example 153, 1-{4-[(2-oxo-5-{3-[4-(trifluoromethoxy)phenyl]-1,2,4-oxadiazol-5-yl}-1,2-dihydropyridin-1-yl)methyl]pyridin-2-yl}piperidine-4-carbonitrile]", "values": [{"measurement": "IC50", "value": "< 100", "unit": "nM"}]}, {"compound": "CC1(C)CCN(c2cc(Cn3cc(-c4nc(-c5ccc(OC(F)(F)F)cc5)no4)ccc3=O)ccn2)CC1", "note": "[Example 154, 1-{[2-(4,4-dimethylpiperidin-1-yl)pyridin-4-yl]methyl}-5-{3-[4-(trifluoromethoxy)phenyl]-1,2,4-oxadiazol-5-yl}-1,2-dihydropyridin-2-one]", "values": [{"measurement": "IC50", "value": "< 100", "unit": "nM"}]}, {"compound": "COC(=O)Cc1cccc(Cn2cc(-c3nc(-c4ccc(OC(F)(F)F)cc4)no3)ccc2=O)c1", "note": "[Example 155, methyl 2-{3-[(2-oxo-5-{3-[4-(trifluoromethoxy)phenyl]-1,2,4-oxadiazol-5-yl}-1,2-dihydropyridin-1-yl)methyl]phenyl}acetate]", "values": [{"measurement": "IC50", "value": "< 100", "unit": "nM"}]}, {"compound": "CN1CCN(C(=O)Cc2cccc(Cn3cc(-c4nc(-c5ccc(OC(F)(F)F)cc5)no4)ccc3=O)c2)CC1", "note": "[Example 156, 1-({3-[2-(4-methylpiperazin-1-yl)-2-oxoethyl]phenyl}methyl)-5-{3-[4-(trifluoromethoxy)phenyl]-1,2,4-oxadiazol-5-yl}-1,2-dihydropyridin-2-one]", "values": [{"measurement": "IC50", "value": "< 100", "unit": "nM"}]}, {"compound": "CN(C)C(=O)Cc1cccc(Cn2cc(-c3nc(-c4ccc(OC(F)(F)F)cc4)no3)ccc2=O)c1", "note": "[Example 157, N,N-dimethyl-2-{3-[(2-oxo-5-{3-[4-(trifluoromethoxy)phenyl]-1,2,4-oxadiazol-5-yl}-1,2-dihydropyridin-1-yl)methyl]phenyl}acetamide]", "values": [{"measurement": "IC50", "value": "< 100", "unit": "nM"}]}, {"compound": "O=c1ccc(-c2nc(-c3ccc(OC(F)(F)F)cc3)no2)cn1Cc1ccnc(N2CCOCC2)c1", "note": "[Example 158, 1-{[2-(morpholin-4-yl)pyridin-4-yl]methyl}-5-{3-[4-(trifluoromethoxy)phenyl]-1,2,4-oxadiazol-5-yl}-1,2-dihydropyridin-2-one]", "values": [{"measurement": "IC50", "value": "< 100", "unit": "nM"}]}, {"compound": "O=c1ccc(-c2nc(-c3ccc(OC(F)(F)F)cc3)no2)cn1Cc1ccnc(N2CCCC2)c1", "note": "[Example 159, 1-{[2-(pyrrolidin-1-yl)pyridin-4-yl]methyl}-5-{3-[4-(trifluoromethoxy)phenyl]-1,2,4-oxadiazol-5-yl}-1,2-dihydropyridin-2-one]", "values": [{"measurement": "IC50", "value": "< 100", "unit": "nM"}]}, {"compound": "O=c1ccc(-c2nc(-c3ccc(OC(F)(F)F)cc3)no2)cn1Cc1cccc(N2CCCCC2)c1", "note": "[Example 160, 1-{[3-(piperidin-1-yl)phenyl]methyl}-5-{3-[4-(trifluoromethoxy)phenyl]-1,2,4-oxadiazol-5-yl}-1,2-dihydropyridin-2-one]", "values": [{"measurement": "IC50", "value": "< 100", "unit": "nM"}]}, {"compound": "CCS(=O)(=O)c1cccc(Cn2cc(-c3nc(-c4ccc(OC(F)(F)F)cc4)no3)ccc2=O)c1", "note": "[Example 161, 1-{[3-(ethanesulfonyl)phenyl]methyl}-5-{3-[4-(trifluoromethoxy)phenyl]-1,2,4-oxadiazol-5-yl}-1,2-dihydropyridin-2-one]", "values": [{"measurement": "IC50", "value": "< 100", "unit": "nM"}]}, {"compound": "COC(=O)C(C)(C)c1cccc(Cn2cc(-c3nc(-c4ccc(OC(F)(F)F)cc4)no3)ccc2=O)c1", "note": "[Example 162, methyl 2-methyl-2-{3-[(2-oxo-5-{3-[4-(trifluoromethoxy)phenyl]-1,2,4-oxadiazol-5-yl}-1,2-dihydropyridin-1-yl)methyl]phenyl}propanoate]", "values": [{"measurement": "IC50", "value": "< 100", "unit": "nM"}]}, {"compound": "O=c1ccc(-c2nc(-c3ccc(OC(F)(F)F)cc3)no2)cn1Cc1ccnc(N2CCC(O)CC2)c1", "note": "[Example 163, 1-{[2-(4-hydroxypiperidin-1-yl)pyridin-4-yl]methyl}-5-{3-[4-(trifluoromethoxy)phenyl]-1,2,4-oxadiazol-5-yl}-1,2-dihydropyridin-2-one]", "values": [{"measurement": "IC50", "value": "< 100", "unit": "nM"}]}, {"compound": "CCN(CC)S(=O)(=O)c1cccc(Cn2cc(-c3nc(-c4ccc(OC(F)(F)F)cc4)no3)ccc2=O)c1", "note": "[Example 164, N,N-diethyl-3-[(2-oxo-5-{3-[4-(trifluoromethoxy)phenyl]-1,2,4-oxadiazol-5-yl}-1,2-dihydropyridin-1-yl)methyl]benzene-1-sulfonamide]", "values": [{"measurement": "IC50", "value": "< 100", "unit": "nM"}]}, {"compound": "CNS(=O)(=O)c1cccc(Cn2cc(-c3nc(-c4ccc(OC(F)(F)F)cc4)no3)ccc2=O)c1", "note": "[Example 165, N-methyl-3-[(2-oxo-5-{3-[4-(trifluoromethoxy)phenyl]-1,2,4-oxadiazol-5-yl}-1,2-dihydropyridin-1-yl)methyl]benzene-1-sulfonamide]", "values": [{"measurement": "IC50", "value": "< 100", "unit": "nM"}]}, {"compound": "O=c1ccc(-c2nc(-c3ccc(OC(F)(F)F)cc3)no2)cn1Cc1cccc(OC2COC2)c1", "note": "[Example 166, 1-{[3-(oxetan-3-yloxy)phenyl]methyl}-5-{3-[4-(trifluoromethoxy)phenyl]-1,2,4-oxadiazol-5-yl}-1,2-dihydropyridin-2-one]", "values": [{"measurement": "IC50", "value": "< 100", "unit": "nM"}]}, {"compound": "O=C1CN(c2cccc(Cn3cc(-c4nc(-c5ccc(OC(F)(F)F)cc5)no4)ccc3=O)c2)CCN1", "note": "[Example 167, 4-{3-[(2-oxo-5-{3-[4-(trifluoromethoxy)phenyl]-1,2,4-oxadiazol-5-yl}-1,2-dihydropyridin-1-yl)methyl]phenyl}piperazin-2-one]", "values": [{"measurement": "IC50", "value": "< 100", "unit": "nM"}]}, {"compound": "O=c1ccc(-c2nc(-c3ccc(OC(F)(F)F)cc3)no2)cn1Cc1cccc(N2CCCS2(=O)=O)c1", "note": "[Example 168, 1-(3-(1,1-dioxidoisothiazolidin-2-yl)benzyl)-5-(3-(4-(trifluoromethoxy)phenyl)-1,2,4-oxadiazol-5-yl)pyridin-2(1H)-one]", "values": [{"measurement": "IC50", "value": "< 100", "unit": "nM"}]}, {"compound": "CN1CCN(c2cccc(Cn3cc(-c4nc(-c5ccc(OC(F)(F)F)cc5)no4)ccc3=O)c2)CC1=O", "note": "[Example 169, 1-methyl-4-{3-[(2-oxo-5-{3-[4-(trifluoromethoxy)phenyl]-1,2,4-oxadiazol-5-yl}-1,2-dihydropyridin-1-yl)methyl]phenyl}piperazin-2-one]", "values": [{"measurement": "IC50", "value": "< 100", "unit": "nM"}]}, {"compound": "CS(=O)(=O)CCCOc1cccc(Cn2cc(-c3nc(-c4ccc(OC(F)(F)F)cc4)no3)ccc2=O)c1", "note": "[Example 170, 1-{[3-(3-methanesulfonylpropoxy)phenyl]methyl}-5-{3-[4-(trifluoromethoxy)phenyl]-1,2,4-oxadiazol-5-yl}-1,2-dihydropyridin-2-one]", "values": [{"measurement": "IC50", "value": "100 to 1000", "unit": "nM"}]}, {"compound": "O=c1ccc(-c2nc(-c3ccc(OC(F)(F)F)cc3)no2)cn1Cc1cccc(CBr)c1", "note": "[Example 171, 1-{[3-(bromomethyl)phenyl]methyl}-5-{3-[4-(trifluoromethoxy)phenyl]-1,2,4-oxadiazol-5-yl}-1,2-dihydropyridin-2-one]", "values": [{"measurement": "IC50", "value": "< 100", "unit": "nM"}]}, {"compound": "COC(=O)/C=C/c1cccc(Cn2cc(-c3nc(-c4ccc(OC(F)(F)F)cc4)no3)ccc2=O)c1", "note": "[Example 172, methyl (2E)-3-{3-[(2-oxo-5-{3-[4-(trifluoromethoxy)phenyl]-1,2,4-oxadiazol-5-yl}-1,2-dihydropyridin-1-yl)methyl]phenyl}prop-2-enoate]", "values": [{"measurement": "IC50", "value": "< 100", "unit": "nM"}]}, {"compound": "CS(=O)(=O)C1CCN(c2cccc(Cn3nc(-c4nc(-c5ccc(OC(F)(F)F)cc5)no4)ccc3=O)c2)CC1", "note": "[Example 173, 2-{[3-(4-methanesulfonylpiperidin-1-yl)phenyl]methyl}-6-{3-[4-(trifluoromethoxy)phenyl]-1,2,4-oxadiazol-5-yl}-2,3-dihydropyridazin-3-one]", "values": [{"measurement": "IC50", "value": "< 100", "unit": "nM"}]}, {"compound": "O=c1ccc(-c2nc(-c3ccc(OC(F)(F)F)cc3)no2)nn1Cc1cccc(O)c1", "note": "[Example 174, 2-[(3-hydroxyphenyl)methyl]-6-{3-[4-(trifluoromethoxy)phenyl]-1,2,4-oxadiazol-5-yl}-2,3-dihydropyridazin-3-one]", "values": [{"measurement": "IC50", "value": "100 to 1000", "unit": "nM"}]}, {"compound": "CS(=O)(=O)C1CCN(c2cc(Cn3cc(-c4nc(-c5ccc(OC(F)(F)F)cc5)no4)ccc3=O)ccn2)CC1", "note": "[Example 175, 1-{[2-(4-methanesulfonylpiperidin-1-yl)pyridin-4-yl]methyl}-5-{3-[4-(trifluoromethoxy)phenyl]-1,2,4-oxadiazol-5-yl}-1,2-dihydropyridin-2-one]", "values": [{"measurement": "IC50", "value": "< 100", "unit": "nM"}]}, {"compound": "CN1CCN(c2cc(Cn3cc(-c4nc(-c5ccc(OC(F)(F)F)cc5)no4)ccc3=O)ccn2)CC1=O", "note": "[Example 176, 1-methyl-4-{4-[(2-oxo-5-{3-[4-(trifluoromethoxy)phenyl]-1,2,4-oxadiazol-5-yl}-1,2-dihydropyridin-1-yl)methyl]pyridin-2-yl}piperazin-2-one]", "values": [{"measurement": "IC50", "value": "< 100", "unit": "nM"}]}]}
